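At the GI50, growth is halved. At the TGI there is no net growth.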
Experiments:
Assay in all cases: growth of human tumour cells (NCI), 384-well format
MALME-3M melanoma = tested on: MALME-3M melanoma
OVCAR-3 ovarian = tested on: OVCAR-3 ovarian
NCI/ADR-RES ovarian = tested on: NCI/ADR-RES ovarian
LOX IMVI melanoma = tested on: LOX IMVI melanoma
SF-295 CNS = tested on: SF-295 CNS
MDA-MB-435 melanoma = tested on: MDA-MB-435 melanoma
SN12C renal = tested on: SN12C renal
HCT-116 colon = tested on: HCT-116 colon
T-47D breast = tested on: T-47D breast
PC-3 prostate = tested on: PC-3 prostate
MDA-MB-468 breast = tested on: MDA-MB-468 breast
A549 NSCLC = tested on: A549 NSCLC
KM12 colon = tested on: KM12 colon
MDA-MB-231 breast = tested on: MDA-MB-231 breast
HOP-62 NSCLC = tested on: HOP-62 NSCLC
COLO 205 colon = tested on: COLO 205 colon
BT-549 breast = tested on: BT-549 breast
OVCAR-8 ovarian = tested on: OVCAR-8 ovarian
NCI-H322M lung = tested on: NCI-H322M lung
OVCAR-4 ovarian = tested on: OVCAR-4 ovarian
NCI-H460 NSCLC = tested on: NCI-H460 NSCLC
SF-268 CNS = tested on: SF-268 CNS
786-0 renal = tested on: 786-0 renal
HT29 colon = tested on: HT29 colon
SNB-19 CNS = tested on: SNB-19 CNS
TK-10 renal = tested on: TK-10 renal
M14 melanoma = tested on: M14 melanoma
HCC-2998 colon = tested on: HCC-2998 colon
IGROV1 ovarian = tested on: IGROV1 ovarian
OVCAR-5 ovarian = tested on: OVCAR-5 ovarian
MCF7 breast = tested on: MCF7 breast
SR leukemia = tested on: SR leukemia
CCRF-CEM leukemia = tested on: CCRF-CEM leukemia
SK-OV-3 ovarian = tested on: SK-OV-3 ovarian
HS 578T breast = tested on: HS 578T breast
SF-539 CNS = tested on: SF-539 CNS
EKVX NSCLC = tested on: EKVX NSCLC
SK-MEL-5 melanoma = tested on: SK-MEL-5 melanoma
NCI-H23 lung = tested on: NCI-H23 lung
DU-145 prostate = tested on: DU-145 prostate
RXF 393 renal = tested on: RXF 393 renal
HOP-92 NSCLC = tested on: HOP-92 NSCLC
SNB-75 CNS = tested on: SNB-75 CNS
HCT-15 colon = tested on: HCT-15 colon
SW-620 colon = tested on: SW-620 colon
RPMI-8226 leukemia = tested on: RPMI-8226 leukemia
UO-31 renal = tested on: UO-31 renal
HL-60(TB) leukemia = tested on: HL-60(TB) leukemia
NCI-H522 lung = tested on: NCI-H522 lung
MOLT-4 leukemia = tested on: MOLT-4 leukemia
NCI-H226 lung = tested on: NCI-H226 lung
U251 glioblastoma = tested on: U251 glioblastoma

COc1ccc(-c2cc3c(C)nc(N)nc3n(C3CCC(OCCO)CC3)c2=O)cn1 (centres undefined)
GI50 (MALME-3M melanoma): 24.7 nM
TGI (MALME-3M melanoma): 143 nM
GI50 (OVCAR-3 ovarian): 53 nM
TGI (OVCAR-3 ovarian): 318 nM
GI50 (NCI/ADR-RES ovarian): 241 nM
TGI (NCI/ADR-RES ovarian): 2270 nM
GI50 (LOX IMVI melanoma): 222 nM
TGI (LOX IMVI melanoma): 1150 nM
GI50 (SF-295 CNS): 45.5 nM
TGI (SF-295 CNS): 257 nM
GI50 (MDA-MB-435 melanoma): 220 nM
TGI (MDA-MB-435 melanoma): 1610 nM
GI50 (SN12C renal): 82.3 nM
TGI (SN12C renal): > 100000 nM
GI50 (HCT-116 colon): 260 nM
TGI (HCT-116 colon): 10500 nM
GI50 (T-47D breast): 19.9 nM
TGI (T-47D breast): 84.6 nM
GI50 (PC-3 prostate): 41.8 nM
TGI (PC-3 prostate): 434 nM
GI50 (MDA-MB-468 breast): 26.7 nM
TGI (MDA-MB-468 breast): 146 nM
GI50 (A549 NSCLC): 173 nM
TGI (A549 NSCLC): 1100 nM
GI50 (KM12 colon): 318 nM
TGI (KM12 colon): 33200 nM
GI50 (MDA-MB-231 breast): 229 nM
TGI (MDA-MB-231 breast): 2370 nM
GI50 (HOP-62 NSCLC): 178 nM
TGI (HOP-62 NSCLC): 1500 nM
GI50 (COLO 205 colon): 126 nM
TGI (COLO 205 colon): 1350 nM
GI50 (BT-549 breast): 114 nM
TGI (BT-549 breast): 630 nM
GI50 (OVCAR-8 ovarian): 245 nM
TGI (OVCAR-8 ovarian): 6520 nM
GI50 (NCI-H322M lung): 149 nM
TGI (NCI-H322M lung): 13300 nM
GI50 (OVCAR-4 ovarian): 90.2 nM
TGI (OVCAR-4 ovarian): 854 nM
GI50 (NCI-H460 NSCLC): 40.9 nM
TGI (NCI-H460 NSCLC): 11600 nM
GI50 (SF-268 CNS): 231 nM
TGI (SF-268 CNS): 1730 nM
GI50 (786-0 renal): 268 nM
TGI (786-0 renal): 1530 nM
GI50 (HT29 colon): 228 nM
TGI (HT29 colon): 5150 nM
GI50 (SNB-19 CNS): 896 nM
TGI (SNB-19 CNS): 2260 nM
GI50 (TK-10 renal): 65.8 nM
TGI (TK-10 renal): 408 nM
GI50 (M14 melanoma): 97.8 nM
TGI (M14 melanoma): 4560 nM
GI50 (HCC-2998 colon): 222 nM
TGI (HCC-2998 colon): 1670 nM
GI50 (IGROV1 ovarian): 24.1 nM
TGI (IGROV1 ovarian): 80.3 nM
GI50 (OVCAR-5 ovarian): 145 nM
TGI (OVCAR-5 ovarian): 1750 nM
GI50 (MCF7 breast): 20.7 nM
TGI (MCF7 breast): 12700 nM
GI50 (SR leukemia): 106 nM
TGI (SR leukemia): 304 nM
GI50 (CCRF-CEM leukemia): 59.7 nM
TGI (CCRF-CEM leukemia): 1150 nM
GI50 (SK-OV-3 ovarian): 80.5 nM
TGI (SK-OV-3 ovarian): 394 nM
GI50 (HS 578T breast): 42.9 nM
TGI (HS 578T breast): 235 nM
GI50 (SF-539 CNS): 185 nM
TGI (SF-539 CNS): 1270 nM
GI50 (EKVX NSCLC): 62.3 nM
TGI (EKVX NSCLC): 447 nM
GI50 (SK-MEL-5 melanoma): 88.2 nM
TGI (SK-MEL-5 melanoma): 261 nM
GI50 (NCI-H23 lung): 132 nM
TGI (NCI-H23 lung): 5990 nM
GI50 (DU-145 prostate): 188 nM
TGI (DU-145 prostate): 23800 nM
GI50 (RXF 393 renal): 37 nM
TGI (RXF 393 renal): 199 nM
GI50 (HOP-92 NSCLC): 43.1 nM
TGI (HOP-92 NSCLC): 302 nM
GI50 (SNB-75 CNS): 24 nM
TGI (SNB-75 CNS): 113 nM
GI50 (HCT-15 colon): 89.8 nM
TGI (HCT-15 colon): 12800 nM
GI50 (SW-620 colon): 315 nM
TGI (SW-620 colon): > 100000 nM
GI50 (RPMI-8226 leukemia): 28.7 nM
TGI (RPMI-8226 leukemia): 105 nM
GI50 (UO-31 renal): 56.2 nM
TGI (UO-31 renal): 856 nM
GI50 (HL-60(TB) leukemia): 17.9 nM
TGI (HL-60(TB) leukemia): 191 nM
GI50 (NCI-H522 lung): 71.6 nM
TGI (NCI-H522 lung): 1200 nM
GI50 (MOLT-4 leukemia): 31.8 nM
TGI (MOLT-4 leukemia): 160 nM
GI50 (NCI-H226 lung): 191 nM
TGI (NCI-H226 lung): 960 nM
GI50 (U251 glioblastoma): 490 nM
TGI (U251 glioblastoma): 1980 nM
